Where a SMILES comes first, the peptide text is derived from it.
Assays:
[1] = test system: 93BR020 (F); type: cell-based; settings: primary HIV-1 isolate, subtype F; read-out: IC50 (nM), infection by primary isolate 93BR020 (F)
[2] = test system: T20-resistant HIV-1 variant V38A; type: cell-based
[3] = test system: T20-resistant HIV-1 variant N42T/N43K; type: cell-based
[4] = test system: preexisting antibodies in sera from HIV-1-infected patients; experiment: Sandwich ELISA: cross-reactivity of peptides with preexisting antibodies in HIV-1-infected patients; type: binding, human; settings: peptide coated at 10 μg/ml, serially diluted sera, 37 °C 1 h, A450
Protocol: A sandwich ELISA was conducted to determine the cross-reactivity of the peptides with the preexisting antibodies in HIV-1-infected patients. […] The wells were then blocked with 1% gelatin, followed by addition of 50 μl of serially diluted sera from HIV-1-infected patients and incubation at 37 °C for 1 h. Then, HRP-labeled goat-anti-human IgG (Abcam, UK) and TMB were added sequentially. A450 was determined with an ELISA reader (Ultra 384, Tecan).

[5] = test system: 92UG029 (A); settings: read-out: IC50 (nM), infection by primary isolate 92UG029 (A); primary HIV-1 isolate, subtype A
[6] = test system: 93IN101 (C); settings: read-out: IC50 (nM), infection by primary isolate 93IN101 (C); primary HIV-1 isolate, subtype C
[7] = test system: 92TH009 (A/E); settings: read-out: IC50 (nM), infection by primary isolate 92TH009 (A/E); primary HIV-1 isolate, subtype A/E
[8] = test system: BCF020 (Group O); settings: read-out: IC50 (nM), infection by primary isolate BCF020 (Group O), primary HIV-1 isolate
[9] = test system: T20-resistant HIV-1 strains
[10] = in vivo; settings: male, Sprague-Dawley (SD), rat, plasma, iv, 1 mg/kg
Protocol: Four male SD rats weighing approximately 200 g each were obtained from the Shanghai Medical School Animal Center and were used for the half-life assay. […] After injection, blood samples were acquired from rat orbit at several time points (8 and 30 min and 1.5, 3, 6, 9, 12 and 24 h after peptide injection) and placed in clean tubes. […] Then, HRP-labeled rabbit-anti-mouse IgG (Sigma, USA) and TMB were added in order. Absorbance at 450 nm was determined by an ELISA reader (Ultra 384, Tecan). The standard peptide parameters were obtained first. Then, the plasma peptide concentrations were determined as a function of time and the half-life was calculated by using PK Solver for Microsoft Excel to obtain pharmacokinetic parameters.

`CC[C@H](C)[C@H](NC(=O)[C@H](CO)NC(=O)[C@H](CCC(=O)O)NC(=O)[C@H](CCC(=O)O)NC(=O)[C@H](CCC(N)=O)NC(=O)[C@H](CCCCN)NC(=O)[C@H](CCCCN)NC(=O)[C@@H](NC(=O)[C@H](CCC(N)=O)NC(=O)[C@H](CCC(=O)O)NC(=O)[C@H](CCC(=O)O)NC(=O)[C@@H](NC(=O)[C@H](CCCCN)NC(=O)[C@H](CCCCN)NC(=O)[C@@H](NC(=O)[C@H](CC(C)C)NC(=O)[C@H](CCC(=O)O)NC(=O)[C@H](CCC(=O)O)NC(=O)[C@H](CO)NC(=O)[C@H](CCCCN)NC(=O)[C@H](CCCCN)NC(=O)[C@@H](NC(=O)[C@H](CC(C)C)NC(=O)[C@H](CCC(=O)O)NC(=O)[C@H](CCC(=O)O)NC(=O)[C@@H](NC(=O)[C@H](CCCCN)NC(=O)[C@H](CCCCN)NC(=O)[C@H](CC(=O)O)NC(=O)[C@H](Cc1c[nH]c2ccccc12)NC(=O)[C@H](CCC(=O)O)NC(=O)[C@H](CCC(=O)O)NC(=O)[C@H](Cc1c[nH]c2ccccc12)NC(=O)[C@@H](NC(=O)[C@H](CCSC)NC(C)=O)[C@@H](C)O)[C@@H](C)CC)[C@@H](C)CC)[C@@H](C)CC)[C@@H](C)CC)[C@@H](C)CC)C(=O)N[C@@H](CCCCN)C(=O)N[C@@H](CCCCN)C(N)=O` [AP3] (Ac-MTWEEWDKKIEELIKKSEELIKKIEEQIKKQEESIKK-NH2) showed an IC50 [1] of 19.9 nM, an IC50 [2] of 12.6 ± 2.66 nM and an IC50 [3] of 35.2 ± 12.5 nM. The “reactivity with antibodies in sera from five HIV-1-infected patients” value [4] was “none of the three artificial peptides AP1, AP2 and AP3 was recognized”, the IC50 [5] was 7.1 ± 1.7 nM and the IC50 [6] was 16.3 ± 1.5 nM. The IC50 [7] was 27.8 ± 5.5 nM, the IC50 [8] was 21.9 ± 0.1 nM and the “fold more effective than AP2 against T20-resistant strains” value ([9]; AP3 versus AP2) was 2- to 4 fold. It also gave an IC50 ([9]; read-out: IC50 against T20-resistant HIV-1 strains (summary), over the T20-resistant strains of Table 1) of 13 to 90 nM, an MRT [10] of 8.69 h and a half-life [10] of 6.02 h.

Reference: article PMC4541410 (Scientific Reports, 2015)
